Experimental data taken from article PMC6271394, “Catechins and Procyanidins of Ginkgo biloba Show Potent Activities towards the Inhibition of β-Amyloid Peptide Aggregation and Destabilization of Preformed Fibrils” (Molecules, 2014).

Experiments:
[1] = target: T1, preformed Aβ42 fibrils (Homo sapiens, UniProt P05067); assay: Destabilization assay (ThT fluorescence): destabilization of preformed Aβ42 fibrils; assay type: biochemical; settings: for EC50: fibrils preformed from 25 μM Aβ42 (24 h, 37 °C), further 24 h at 37 °C with compound, ThT fluorescence
T1 construct: The Aβ42 peptide was produced by Bachem AG; purchased Bachem AG
T1 sequence (P05067 672-713 limits assumed, species assumed): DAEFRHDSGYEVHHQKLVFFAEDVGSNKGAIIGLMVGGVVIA
Protocol: The destabilization assay used to evaluate the activities of the polyphenolic compounds towards the destabilization of preformed fibrils was performed as described by Ono et al.. Briefly, a reaction mixture containing 25 μM Aβ42 and 50 mM phosphate buffer (pH 7.5 and 100 mM NaCl) was incubated on a PCR system for 24 h at 37 °C to form fibrils. All of the test compounds (i.e., C, EC, GC, EGC, P-B1, and P-B3) were initially dissolved in DMSO at concentrations of 30, 100 and 300 μM, and 1 and 3 mM, before being added to the reaction mixture to give final concentrations of 0.3, 1.0, 3.0, 10, and 30 μM, respectively. The resulting mixtures were continued the incubation of 24 h at 37 °C, and then subjected to fluorescent measurements as in the polymerization assay.
(§1) The fluorescence measurements were recorded on an Envision® 2104 Multilabel Reader (Perkin Elmer, Waltham, MA, USA), with optimized excitation and emission wavelengths of 430 (BW 24 nm) and 470 nm (BW 24 nm), respectively. The reaction mixture contained 5 μM ThT and 50 mM of glycine-NaOH buffer (pH 8.5). The IC50 and EC50 values were calculated using the GraphPad Prism 5 software. All results were expressed as the mean ± SEM, and statistical analyses were performed using the Student’s t test.

[2] = target: T2, Aβ42 (Homo sapiens, UniProt P05067); assay: Polymerization assay (ThT fluorescence): inhibition of Aβ42 aggregation; assay type: biochemical; settings: for IC50: 25 μM Aβ42, 1% DMSO, 50 mM phosphate buffer pH 7.5, 100 mM NaCl, ThT fluorescence
T2 construct: The Aβ42 peptide was produced by Bachem AG; purchased Bachem AG
T2 sequence (P05067 672-713 limits assumed, species assumed): as above
Protocol: The polymerization assay was performed as previously described in the literature. For single compounds, the reaction mixture contained 25 μM Aβ42, 0.3, 1.0, 3.0, 10, or 30 μM C, EC, GC, EGC, P-B1, or P-B3, 1% DMSO, 50 mM phosphate buffer (pH 7.5) and 100 mM NaCl. Prior to being tested, the compounds were dissolved in DMSO at concentrations of 30, 100 and 300 μM, and 1.0 and 3.0 mM, and then added to the reaction mixture to final concentrations 0.3, 1.0, 3.0, 10, and 30 μM, respectively. For the extract and its fractions, different concentration sequences were incubated in the reaction mixture. With the exception of one sequence (i.e., 3.0, 10, 30, 100 and 200 μg/mL) for Fr. Ts and another (i.e., 0.3, 1.0, 3.0, 10, 30 μg/mL) for Fr. Ps, one concentration sequence (i.e., 1.0, 3.0, 10, 30 and 100 μg/mL) was used for the extract and all of the other fractions.
as §1

[3] = target: T2, Aβ42; design: method as in PMID 24727418; settings: earlier work of the same authors; cited from earlier work

EC50 [1]	IC50 [2]	Compound	activity towards Aβ42 aggregation in vitro (in words) [3]	ability to destabilize fibrils (in words) ([1]; this paper's destabilization assay)	inhibitory activity towards Aβ42 aggregation (in words) ([2]; this paper's polymerization assay)
5.27 ± 1.26 µM	14.9 ± 3.42 µM	Oc1cc(O)c2c(c1)O[C@H](c1ccc(O)c(O)c1)[C@@H](O)C2 [C, (+)-catechin]	very little activity	–	–
5.99 ± 0.6 µM	9.44 ± 0.24 µM	Oc1cc(O)c2c(c1)O[C@H](c1ccc(O)c(O)c1)[C@H](O)C2 [EC, (−)-epicatechin]	–	–	–
3.51 ± 0.32 µM	3.28 ± 0.46 µM	Oc1cc(O)c2c(c1)O[C@H](c1ccc(O)c(O)c1)[C@H](O)[C@H]2c1c(O)cc(O)c2c1O[C@H](c1ccc(O)c(O)c1)[C@@H](O)C2 [P-B1, Procyanidin B1]	–	–	–
5.12 ± 0.75 µM	3.54 ± 0.39 µM	Oc1cc(O)c2c(c1)O[C@H](c1ccc(O)c(O)c1)[C@@H](O)[C@@H]2c1c(O)cc(O)c2c1O[C@H](c1ccc(O)c(O)c1)[C@@H](O)C2 [P-B3, procyanidin B3]	–	–	–
–	–	CC(C)(C)[C@]1(O)CC2OC(=O)CC23C(=O)OC2OC(=O)[C@H](O)C231 (stereo partly drawn) [bilobalide]	very little activity	–	–
–	–	C[C@@H]1C(=O)O[C@H]2C[C@@]34[C@H]5C[C@@H](C(C)(C)C)[C@]36[C@@H](OC(=O)[C@@H]6O)O[C@@]4(C(=O)O5)[C@]21O [ginkgolides A, ginkgolide A]	very little activity	–	–
–	–	ginkgolide B	very little activity	–	–

Compound	EC50 [1]	IC50 [2]	activity towards Aβ42 aggregation in vitro (in words) [3]	ability to destabilize fibrils (in words) ([1]; this paper's destabilization assay)	inhibitory activity towards Aβ42 aggregation (in words) ([2]; this paper's polymerization assay)
Oc1cc(O)c2c(c1)O[C@H](c1cc(O)c(O)c(O)c1)[C@H](O)C2 [EGC, (−)-epigallocatechin]	7.76 ± 0.94 µM	8.51 ± 0.96 µM	–	–	–
Oc1cc(O)c2c(c1)O[C@H](c1cc(O)c(O)c(O)c1)[C@@H](O)C2 [GC, (−)-gallocatechin]	15.7 ± 3.19 µM	17.5 ± 0.57 µM	–	least influence	least influence
